Assay: Oxidation-reduction resistance evaluation (cyclic voltammetry)
Type: physicochemical
Settings: 0.1 mol/L in 1.0 mol/L aqueous sodium hydrogen carbonate; glass-like carbon electrode, Ag/AgCl reference; sweep rate 100 mV/sec
Protocol: The fluoflavine compound represented by the formula (1-2) was dissolved in an aqueous solution (1.0 mol/L) of sodium hydrogen carbonate (manufactured by Tosoh Corporation, an industrial product) so that the concentration was 0.1 mol/L to produce an electrolyte liquid 10. The electrolyte liquid 10 was added into a sample vial for voltammetry (manufactured by BAS Inc., No. 001056), and a Teflon™ cap for voltammetry (manufactured by BAS Inc., 012671) was attached. A Pt counter electrode (manufactured by BAS Inc., No. 002222), a GCE glass-like carbon electrode (manufactured by BAS Inc., 6.0×3.0 mm, No. 002012), and a saturated KCl/silver/silver chloride reference electrode (manufactured by BAS Inc., No. 013503) were fixed with the Teflon™ cap so as to be immersed in the electrolyte liquid 10, and measurement of cyclic voltammetry was performed with a multi-electrochemical measurement system (manufactured by Hokuto Denko Co., Ltd., HZ-Pro). The potential scanning range was set to −500 mV to 700 mV, and a sweep rate was set to 100 mV/see to perform the measurement.
An electrolyte liquid 12 was prepared in the same manner except that the fluoflavine compound represented by the formula (1-2) in the oxidation-reduction resistance evaluation 1 was changed to the compound represented by the formula (1-17). […]

O=S(=O)([O-])c1cc(O)c(O)c(S(=O)(=O)[O-])c1.[Na+].[Na+] [formula (1-17)]
oxidation-reduction resistance (cyclic voltammogram, first cycle): oxidized and then decomposed
